Entries after “also recorded” stand apart in the source; their conditions may differ.
Legend:
[1] = test system: colorectal cancer cell lines HCT-15 and HT-29; test: Relative viability (trypan blue viable cell counts) with G6PDi-1 plus asparaginase; format: cell-based, human; settings: G6PDi-1 30 μM with indicated doses of asparaginase
Experimental: (§1) FIG. 3a colorectal cell lines, HCT-15 and HT-29 were treated with small molecule inhibitor G6PDi at the indicated concentrations and activity of G6PD was assessed. FIGS. 3b-3c Colorectal cancer cell lines, HCT-15 (FIG. 3b) and […] (FIG. 3c) were treated with vehicle or G6PDi-1 (30 μM) and with the indicated doses of asparaginase. Relative viability was assessed by counting viable cells based on trypan blue vital dye staining, with cell counts normalized to those in cells with no-asparaginase controls.

[2] = test system: Apc-deficient organoids with mutations of Tp53 and Kras; test: Organoid viability (counting viable organoids); format: cell-based, mouse; settings: 500 U/L asparaginase + 100 μM G6PDi-1, basal medium
Experimental: FIG. 4a Apc-deficient organoids with mutations of Tp53 and Kras were cultured in basal medium and treated with vehicle, asparaginase (500 U/L), G6PDi-1 (100 μM), or combo (500 U/L asparaginase+100 μM G6PDi-1). FIG. 4b Viability of organoids from FIG. 4a was assessed by counting viable organoids. Data is relative to vehicle treatment group.

G6PD = molecular target: T1, G6PD (Homo sapiens, UniProt P11413); test: G6PD activity assay in colorectal cell lines treated with G6PDi; format: cell-based; settings: HCT-15 and HT-29 treated with G6PDi at the indicated concentrations
T1 construct: endogenous in cells; host or cells: HCT-15 and HT-29 colorectal cancer cell lines
Experimental: as §1

[3] = test system: NADP/NADPH ratio in HCT-15 cells; test: NADP/NADPH ratio, NADP/NADPH Assay Kit (colorimetric, OD 450 nm); format: cell-based, human
Experimental: FIG. 8a, HCT-15 cells were transduced with the indicated shRNAs and with the indicated doses of asparaginase, and the ratio of NADP to NADPH was measured using the NADP/NADPH Assay Kit (abcam product #ab65349). Relative NADP/NADPH ratio was assessed by microplate reader based on colorimetric signals (OD 450 nm), with colorimetric signal normalized to those in shLuc cells with no-asparaginase controls. FIG. 8b, the colorectal cancer cell line HCT-15 was treated with vehicle, asparaginase (500 U/L), G6PDi-1 (30 μM) or combination treatment. […] was measured by NADP/NADPH Assay Kit (ab65349) in indicated cells. Relative NADP/NADPH ratio was assessed by microplate reader based on colorimetric signals (OD 450 nm), with colorimetric signal normalized to those in shLuc cells with no-asparaginase controls.

[4] = test system: HCT-15 colorectal cancer cells; test: Relative viability of HCT-15 cells with CRISPR interference of RPIA and RPE, treated with asparaginase; format: cell-based, human; settings: HCT-15 with dCas9-KRAB and guide RNAs targeting RPIA and RPE promoters
Experimental: HCT-15 colorectal cancer cells were transduced with a so-called CRISPR interference system, consisting of a dCas9-KRAB expression construct and guide RNAs targeting the promoters of RPIA and RPE, to inhibit expression of these enzymes. Cells were then treated with vehicle or asparaginase at the indicated doses. Relative viability was assessed by counting viable cells based on trypan blue vital dye staining, with cell counts normalized to those in cells with no-asparaginase controls.

[5] = test system: mouse intestinal organoid models of colorectal cancer; test: Subcutaneous AKP organoid tumors in immunodeficient mice, tumor volume; format: in vivo; settings: G6pdx-deficient (shG6pdx) organoid tumors, asparaginase 1,000 U/kg
Excerpt: Left panel, Mouse intestinal organoids with Apc deficiency, Kras activating mutations, and Tp53 loss (so-called AKP organoids) were transduced with two distinct control shRNAs (shGFP and shLuciferase), or two distinct shRNAs targeting G6pdx (the mouse G6PD gene). Knockdown of G6pdx protein expression was confirmed by Western blot analysis.
Organoids were transduced with control (shLuc) and two distinct shG6pdx-targeting shRNAs (see FIG. 10), and injected subcutaneously into immunodeficient mice. After engraftment of tumors (defined as tumors reaching a volume of 150 mm3), mice were treated with vehicle (phosphate-buffered saline, PBS) or asparaginase (1,000 U/kg), and tumor volumes were followed. Asparaginase or PBS were re-dosed at the time points indicated by the black arrows.

[6] = test system: HCT-15 colorectal cancer cell line; test: Relative viability of G6PD knock-out HCT-15 clones treated with asparaginase; format: cell-based, human; settings: G6PD knock-out (KO) clones of HCT-15 versus wild-type
Experimental: FIG. 5a, Western blot analysis of G6PD protein expression levels in parental HCT-15 cells (G6PD wild-type) and two distinct G6PD knock-out (KO) clones generated by CRISPR-Cas9 induced gene deletion. FIG. 5b, control (G6PD wild-type) or G6PD knockout (KO) clones of the HCT-15 colorectal cancer cell line were treated with asparaginase at the indicated doses, and relative cell viability was assessed by counting the number of live cells based on trypan blue vital dye staining, with cell counts normalized to those in cells with no-asparaginase controls.

[7] = test system: ROS levels in HCT-15 cells; test: Reactive oxygen species levels, Cellular ROS Assay Kit; format: cell-based, human; settings: G6PD deficient (shG6PD #1 and #2) HCT-15 cells, indicated doses
Experimental: HCT-15 cells were transduced with negative control shRNA (shLuciferase, shLuc) or with two distinct G6PD-targeting shRNAs (shG6PD #1 and #2), treated with asparaginase at the indicated doses, and reactive oxygen species (ROS) levels were assessed using the Cellular ROS Assay Kit (Abcam, product number ab113851) in shLuc (control). ROS levels were measured by fluorescence microplate reader, and were normalized to those in shLuc-transduced, no-asparaginase controls. […] Results are shown as means±SEM; n=3. ****P<0.0001.

[8] = test system: NADP/NADPH ratio in HCT-15 G6PD knock-out cells; test: NADP/NADPH ratio by liquid chromatography/mass spectrometry in G6PD knock-out clones; format: cell-based, human; settings: HCT-15 G6PD knock-out clones #1 and #2, asparaginase 500 U/L
Experimental: HCT-15 cells that were either G6PD wild-type (WT) parental cells, or G6PD knock-out clones #1 and #2, were treated by vehicle or asparaginase (500 U/L). NADP/NADPH ratio was measured by liquid chromatography/mass spectrometry, and levels are shown normalized to those in HCT-15 cells with no-asparaginase controls.

T1 sequence (P11413 whole entry): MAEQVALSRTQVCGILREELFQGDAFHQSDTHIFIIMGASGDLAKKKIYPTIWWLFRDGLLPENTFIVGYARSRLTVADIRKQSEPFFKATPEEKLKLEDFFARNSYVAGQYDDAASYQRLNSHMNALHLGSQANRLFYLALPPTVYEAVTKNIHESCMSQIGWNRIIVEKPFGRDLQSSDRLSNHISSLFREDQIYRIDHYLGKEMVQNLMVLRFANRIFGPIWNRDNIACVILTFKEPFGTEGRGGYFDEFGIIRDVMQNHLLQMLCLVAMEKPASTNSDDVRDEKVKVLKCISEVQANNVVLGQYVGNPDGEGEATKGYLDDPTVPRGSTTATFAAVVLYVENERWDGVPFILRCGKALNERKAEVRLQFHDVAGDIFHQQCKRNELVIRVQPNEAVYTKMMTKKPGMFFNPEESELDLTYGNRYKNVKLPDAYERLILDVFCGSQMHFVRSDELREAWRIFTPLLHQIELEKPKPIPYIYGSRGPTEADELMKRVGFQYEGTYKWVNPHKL

G6PD activity (G6PD)	Substance	sensitivity to asparaginase (relative viability) [1]	asparaginase sensitivity in organoids (viable organoids relative to vehicle) [2]	relative NADP/NADPH ratio on G6PD inhibition ([3]; HCT-15 cells, G6PDi-1 30 μM)	relative viability on asparaginase treatment [4]	tumor volume / therapeutic activity [5]	asparaginase sensitivity (relative cell viability) [6]	reactive oxygen species levels on asparaginase treatment [7]	relative NADP/NADPH ratio on asparaginase treatment ([3]; HCT-15 cells depleted of G6PD (shRNA or G6PDi-1 30 μM), asparaginase 500 U/L or indicated doses)	NADP/NADPH ratio on asparaginase treatment (LC/MS) [8]
reduce G6PD activity	G6PDi-1	induce sensitivity to asparaginase	induce asparaginase sensitivity	increased						
	asparaginase				None of the differences were statistically significant	tumor volumes were reduced; also recorded: significant therapeutic activity	induces asparaginase sensitivity	not further elevated	further increased the NADP/NADPH ratio; also recorded: further increase of NADP/NADPH ratio	further increase of NADP/NADPH ratio

Source: patent US20240024436A1, “METHOD FOR TREATING CANCER” (CHILDREN'S MEDICAL CENTER CORPORATION, priority 2022, published 2024)
